Tested on: NCI-H460 (lung cancer) human tumor cell line
Assay: MTS growth inhibition assay, NCI-H460
Assay type: cell-based
Experimental: The agents PDX, PDX-10a, PDX-10b, were evaluated for growth inhibitory activity against, MDA-MB-435, SKBR-3 and NCI-H460 human tumor cell lines. Growth inhibition was measured by MTS assay following three hours of continuous treatment and a seventy-two hour recovery incubation. The purpose of these studies was to determine the cytotoxic activity of the compounds in the tumor cell lines studies studied.
Materials and Methods. Preparation of PDX-10a and PDX-10b was performed as discussed in Examples 1-2. The PDX compounds were diluted in dimethylsulfoxide (DMSO) at a concentration of 20 mM. From this solution a stock solution of 2 mM was made by dilution with phosphate-buffered saline (PBS). This 2 mM stock solution in 10% DMSO/90% PBS was used to make 2× concentrations of the titration series in cell growth medium which was added to the cell cultures in a 1:1 ratio to make 1× concentrations. Cell lines—The human tumor cell lines: MDA-MB-435 (melanoma), SKBR-3 (breast cancer) and NCI-H460 (lung cancer) were cultured in RPMI medium (RPMI; Nova Tech, Grand Island, N.Y.) containing ten percent dialyzed fetal bovine serum (FBS; Nova Tech). Once cells reached seventy percent confluency, they were trypsinized and resuspended in an alternate media (RPMI containing five percent dialyzed FBS (Hyclone, Logan, Utah). One day prior to treatment (Day 0), cultures were suspended at a concentration of 1−7.5×10^4 cell/ml and 100 μl aliquots were plated into each well of a 96-well microtiter plate at a final concentration of 1×10^3-7.5×10^3 cells/well. Cells were incubated for 24 hours at 37° C. prior to exposure with agents.
Test Agents—racemic PDX, and individual diastereomers PDX-10a and PDX-10b were prepared as described above. Cells were treated 24 hours after plating (Day 1) with vehicle (media) alone or the above test agents for three hours at concentrations between 3 μM and 10 μM.
Single Agent Pulse Studies—Treatment with test agents or standard agents (controls) was initiated 24 hours after plating cells (Day 1). Cells were incubated at 37° C. with each of the test agents or a “chemococktail” (positive control) consisting of 215 μM Etoposide, 20 μM Taxol, 38.5 nM Velcade at final concentration for three hours. Following treatment, drug was removed, growth media added, and cells incubated at 37° C. for 72 hours. Following incubation, the viable cell number was quantified by the MTS assay described below. Experiments were repeated twice at the same concentrations. Results from these studies were used to calculate an IC50 value (concentration of drug that inhibits cell growth by 50% of the vehicle) for each compound. IC50 values were generated with Prizm software.
MTS Assay—Cell viability was determined using the MTS assay. This colorimetric procedure measures conversion of the MTS reagent (a tetrazolium salt) to formazan by living cells. Formazan production was quantified by spectrophotometric measurement at 490 nm and is proportional to viable cell number. For these studies, cells were cultured and treated as listed above. At the end of the treatment, 20 μl MTS tetrazolium (1.9 mg/ml in PBS, pH 6.0) was added to the cells for 1 hour at 37° C. Absorbance (OD) values were measured using a Dynex HD microplate reader at a single wavelength of 490 nm.
Data Analysis—Data from each experiment was collected and expressed as OD490 versus the log10 of the test agent concentration. Using the statistical analysis package of the Prizm analytical software (GraphPad, San Diego, Calif.), a non-linear curve fit was performed which yielded the 50% inhibition concentration of the test article (IC50).

[1] = Homo sapiens, NCI-H460, NCI-H460 (lung), 3 h treatment, 72 h recovery, MTS
[2] = Homo sapiens, NCI-H460, NCI-H460 repeat assay

Structure (SMILES)	IC50 [1]	IC50 [2]	IC50 (NCI-H460 repeat assay)
C#CC[C@@H](Cc1cnc2nc(N)nc(N)c2n1)c1ccc(C(=O)N[C@@H](CCC(=O)O)C(=O)O)cc1 (single isomer, unassigned) [PDX-10a]	289 nM	169 nM	169 nM
C#CC[C@H](Cc1cnc2nc(N)nc(N)c2n1)c1ccc(C(=O)N[C@@H](CCC(=O)O)C(=O)O)cc1 (single isomer, unassigned) [PDX-10b]	45.8 nM	46.2 nM	–
